In one data set the target is T1, mouse liver FBPase (Mus musculus, UniProt Q9QXD6).
T1 construct: This partially purified fraction was used for enzyme assays; from tissue; host or cells: mouse liver, 45-75% ammonium sulfate fraction
T1 sequence (Q9QXD6 2-338 limits assumed): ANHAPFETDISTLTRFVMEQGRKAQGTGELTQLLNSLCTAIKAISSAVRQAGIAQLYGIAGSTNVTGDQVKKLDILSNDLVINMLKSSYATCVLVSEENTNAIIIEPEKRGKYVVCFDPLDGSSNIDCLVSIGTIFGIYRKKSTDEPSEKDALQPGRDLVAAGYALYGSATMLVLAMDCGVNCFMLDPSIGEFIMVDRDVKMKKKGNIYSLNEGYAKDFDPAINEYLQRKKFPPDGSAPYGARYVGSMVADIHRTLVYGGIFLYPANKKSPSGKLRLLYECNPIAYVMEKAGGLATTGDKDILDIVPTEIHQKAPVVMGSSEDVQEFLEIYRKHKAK
Put plainly: Inhibition of mouse liver FBPase. The class given is biochemical. The following applies: partially purified mouse liver fraction. Here is the method:
Enzymatic activity was measured spectrophotometrically in reactions that coupled the formation of product (fructose 6-phosphate) to the reduction of dimethylthiazoldiphenyltetrazolium bromide (MTT) via NADP and phenazine methosulfate (PMS), using phosphoglucose isomerase and glucose 6-phosphate dehydrogenase as the coupling enzymes. Reaction mixtures (200 μl) were made up in 96-well microtitre plates, and consisted of 50 mM Tris-HCl, pH 7.4, 100 mM KCl, 5 mM EGTA, 2 mM MgCl2, 0.2 mM NADP, 1 mg/ml BSA, 1 mM MTT, 0.6 mM PMS, 1 unit/mL phosphoglucose isomerase, 2 units/mL glucose 6-phosphate dehydrogenase, and 0.150 mM substrate (fructose 1,6-bisphosphate). Inhibitor concentrations were varied from 0.01 μM to 10 μM.
Mouse liver FBPase was obtained by homogenizing freshly isolated mouse liver in 100 mM Tris-HCl buffer, pH 7.4, containing 1 mM EGTA, and 10% glycerol. […] This fraction was redissolved in the homogenization buffer and desalted on a PD-10 gel filtration column (Biorad) eluted with same. This partially purified fraction was used for enzyme assays. Both rat liver and mouse liver FBPase were assayed as described for human liver FBPase.

The subject of the next data set is rat hepatocytes. Put plainly: Inhibition of gluconeogenesis in rat hepatocytes. The class given is cell-based. Conditions: glucose production from lactate/pyruvate, isolated rat hepatocytes, 1 hour. Here is the method: Hepatocytes were prepared from overnight fasted Sprague-Dawley rats (250-300 g) according to the procedure of Berry and Friend (Berry, M. N., Friend, D. S., 1969, J. Cell. Biol. 43, 506-520) as modified by Groen (Groen, A. K., Sips, H. J., Vervoorn, R. C., Tager, J. M., 1982, Eur. J. Biochem. 122, 87-93). Hepatocytes (75 mg wet weight/mL) were incubated in 1 ml Krebs-bicarbonate buffer containing 10 mM Lactate, 1 mM pyruvate, 1 mg/mL BSA, and test compound concentrations from 1 to 500 μM. Incubations were carried out in a 95% oxygen, 5% carbon dioxide atmosphere in closed, 50-mL Falcon tubes submerged in a rapidly shaking water bath (37° C.). After 1 hour, an aliquot (0.25 mL) was removed, transferred to an Eppendorf tube and centrifuged. 50 μL of supernatant was then assayed for glucose content using a Sigma Glucose Oxidase kit as per the manufacturer's instructions.

Structures are written as SMILES. Structures can show the parent of a compound that is named as a salt.

The IC50 is the concentration needed to halve the response being measured. Broadly, the melting point is the temperature of the solid-liquid transition.

In turn, `COC(=O)c1cccc(Cn2c(-c3ccc(P(=O)(O)O)o3)nc3c(N)cccc32)c1` [Compound 12.6, 4-Amino-1-(3-carbomethoxybenzyl)-2-[2-(5-phosphono)furanyl]benzimidazole] yielded a melting point of 198 to 202 °C. Further, the IC50 against mouse liver FBPase was > 20 µM.

For `Nc1cccc2c1nc(-c1ccc(P(=O)(O)O)o1)n2CCCCl` [Compound 12.35, 4-Amino-1-(3-chloropropyl)-2-[2-(5-phosphono)furanyl]benzimidazole], on mouse liver FBPase, the IC50 was > 20 µM.

For the molecule `Nc1cccc2c1nc(-c1ccc(P(=O)(O)O)o1)n2Cc1ccoc1` [Compound 12.37, 4-Amino-1-(3-furanylmethyl)-2-[2-(5-phosphono)furanyl]benzimidazole], the IC50 against mouse liver FBPase was found to be 1.27 µM.

`CC(C)Cn1c(-c2ccc(P(=O)(O)O)o2)nc2c(N)c(Br)cc(Br)c21` [Compound 12.42, 4-Amino-5,7-dibromo-1-isobutyl-2-[2-(5-phosphono)furanyl]benzimidazole] yielded an IC50 with rat hepatocytes of 14 µM.

Turning to `CC(C)Cn1c(-c2ccc(P(=O)(O)O)o2)nc2c(N)c(Br)ccc21` [Compound 12.44, 4-Amino-5-bromo-1-isobutyl-2-[2-(5-phosphono)furanyl]benzimidazole], in the data set on rat hepatocytes, the IC50 is 14 µM.

Molecule `CC(C)Cn1c(-c2ccc(P(=O)(O)O)o2)nc2c(N)c(Cl)cc(Cl)c21` [Compound 12.50, 4-Amino-5,7-dichloro-1-isobutyl-2-(2-phosphono-5-furanyl)benzimidazole] displayed a melting point of 205 to 207 °C. The molecule further yielded an IC50 with rat hepatocytes (Hepatocyte) of 17 µM.

The molecule `CC(C)Cn1c(-c2ccc(P(=O)(O)O)o2)nc2c(N)c(F)cc(Cl)c21` [Compound 12.54, 4-Amino-5-fluoro-7-chloro-1-isobutyl-2-(2-phosphono-5-furanyl)benzimidazole] came in with a melting point of 220 to 225 °C. The IC50 against mouse liver FBPase was 1.07 µM.

With `CC(C)Cn1c(-c2ccc(P(=O)(O)O)o2)nc2c(N)c(F)cc(Br)c21` [Compound 12.62, 4-Amino-5-fluoro-7-bromo-1-isobutyl-2-(2-phosphono-5-furanyl)benzimidazole], the melting point is 195 to 200 °C. In addition, the IC50 with rat hepatocytes (Hepatocyte) came to 5 µM.

The molecule `CC(C)Cn1c(-c2ccc(P(=O)(O)O)o2)nc2c(N)c(F)c(Cl)cc21` [Compound 12.63, 4-Amino-5-fluoro-6-chloro-1-isobutyl-2-(2-phosphono-5-furanyl)benzimidazole] yielded a melting point of 175 to 180 °C. In addition, in the data set on rat hepatocytes (Hepatocyte), the half-maximal inhibitory concentration (IC50) was 16 µM.

`CC(C)Cn1c(-c2ccc(P(=O)(O)O)o2)nc2c(N)c(F)cc(CCCO)c21` [Compound 12.79, 4-Amino-7-(propane-3-ol)-5-fluoro-1-isobutyl-2-(2-phosphono-5-furanyl)benzimidazole] displayed a melting point of 170 to 173 °C. The IC50 against mouse liver FBPase was 0.72 µM. In the data set on rat hepatocytes (Hepatocyte), this molecule had an IC50 of 1 µM.

With `CC(C)Cn1c(-c2ccc(P(=O)(O)O)o2)nc2c(N)c(F)cc(CCCBr)c21` [Compound 12.80, 4-Amino-5-fluoro-7-(3-bromopropyl)-1-isobutyl-2-(2-phosphono-5-furanyl)benzimidazole], the melting point was 190 to 195 °C (dec.). Moreover, at mouse liver FBPase, half-maximal inhibition (IC50) required 0.3 µM. The molecule further registered an IC50 with rat hepatocytes (Hepatocyte) of 1.6 µM.

On to `CC(C)Cn1c(-c2ccc(P(=O)(O)O)o2)nc2c(N)c(F)cc(CCCCBr)c21` [Compound 12.82, 4-Amino-5-fluoro-7-(4-bromobutyl)-1-isobutyl-2-(2-phosphono-5-furanyl)benzimidazole], for which the melting point is 200 to 220 °C (dec.). The molecule also displayed an IC50 against mouse liver FBPase of 0.3 µM. This molecule also returned an IC50 in the data set on rat hepatocytes (Hepatocyte) of 2.2 µM.

For `CC(C)Cn1c(-c2ccc(P(=O)(O)O)o2)nc2c(N)c(F)cc(CCCN(C)C)c21` [Compound 12.84, 4-Amino-5-fluoro-7-(3-N,N-dimethylpropylamine)-1-isobutyl-2-(2-phosphono-5-furanyl)benzimidazole hydrobromide salt], it took 0.5 µM to reach half-maximal inhibition against mouse liver FBPase (IC50).

`CC(C)Cn1c(-c2ccc(P(=O)(O)O)o2)nc2c(O)cccc21` [Compound 13.21, 4-Hydroxy-1-isobutyl-2-(2-phosphono-5-furanyl)benzimidazole] displayed a melting point of 244 to 245 °C. Besides, the IC50 against mouse liver FBPase was > 20 µM.

Consider `CC(C)(C)Cn1c(-c2ccc(P(=O)(O)O)o2)nc2c(F)cccc21` [Compound 13.25, 4-Fluoro-1-neopentyl-2-(2-phosphonofuranyl)benzimidazole], for which, on mouse liver FBPase, the IC50 was > 20 µM.

In the case of `CC(C)(C)Cn1c(-c2ccc(P(=O)(O)O)o2)nc2ccc(Cl)cc21` [Compound 13.56, 6-Chloro-1-neopentyl-2-(2-phosphono-5-furanyl)benzimidazole], the IC50 at mouse liver FBPase is > 20 µM.

Turning to `Cc1c(Cl)cc2c(nc(-c3ccc(P(=O)(O)O)o3)n2CC2CC2)c1C` [Compound 13.61, 6-Chloro-4,5-dimethyl-1-cyclopropylmethyl-2-(2-phosphono-5-furanyl)benzimidazole], the melting point was 219 to 220 °C. Moreover, at mouse liver FBPase, the IC50 was > 20 µM.

Molecule `COc1cccc(-n2c(-c3ccc(P(=O)(O)O)o3)nc3ccc(Cl)cc32)c1` [Compound 13.65, 6-Chloro-1-(3-methoxyphenyl)-2-(2-phosphono-5-furanyl)benzimidazole] gave a melting point of 184 to 185 °C.

Molecule `O=C(NCP(=O)(O)O)c1nc2ccccc2[nH]1` [Compound 13.66, N-(Phosphonomethyl)benzimidazole-2-carboxamide] had a melting point of 258 to 260 °C. For the same molecule, the 50% inhibitory concentration (IC50) at mouse liver FBPase is > 20 µM.

In turn, `CC(C)Cn1c(-c2ccc(P(=O)(O)O)o2)nc2cc(F)c([N+](=O)[O-])c(Br)c21` [Compound 13.68, 1-Isobutyl-5-fluoro-6-nitro-7-bromo-2-(2-phosphono-5-furanyl)benzimidazole] showed a melting point of 161 to 165 °C.

`CC(C)Cn1c(-c2ccc(P(=O)(O)O)o2)nc2cc(F)c(N)c(Br)c21` [Compound 13.69, 1-Isobutyl-5-fluoro-6-amino-7-bromo-2-(2-phosphono-5-furanyl)benzimidazole] showed a melting point of 208 to 211 °C.

Take `CC(=O)Nc1c(F)cc2nc(-c3ccc(P(=O)(O)O)o3)n(CC(C)C)c2c1Br` [Compound 13.76, 1-Isobutyl-5-fluoro-6-acetamido-7-bromo-2-(2-phosphono-5-furanyl)benzimidazole]: the melting point was 217 to 221 °C (dec.).

With `CCc1c(Cl)c(F)cc2[nH]c(-c3ccc(P(=O)(O)O)o3)nc12` [Compound 13.80, 5-Fluoro-6-chloro-7-ethyl-2-(2-phosphono-5-furanyl)benzimidazole], the melting point lay in the range of 165 to 190 °C.

Consider `Cc1c(C)c(C)c2[nH]c(-c3ccc(P(=O)(O)O)o3)nc2c1C` [Compound 13.82, 4,5,6,7-Tetramethyl-2-(2-phosphono-5-furanyl)benzimidazole], for which the melting point was in the range of 202 to 206 °C.

Consider `Cc1c(Cl)cc2c(nc(-c3ccc(P(=O)(O)O)o3)n2CCCCBr)c1C` [Compound 13.90, 1-(4-Bromobutyl)-4,5-dimethyl-6-chloro-2-(2-phosphono-5-furanyl)benzimidazole], for which the melting point lay in the range of 212 to 216 °C.

`Cc1c(Cl)ccc2c1nc(-c1ccc(P(=O)(O)O)o1)n2CC(C)C` [Compound 13.96, 1-Isobutyl-4-methyl-5-chloro-2-(2-phosphono-5-furanyl)benzimidazole] registered an IC50 at mouse liver FBPase of 0.7 µM.

For `CC(C)Cn1c(COCP(=O)(O)O)nc2c(N)c(F)cc(Br)c21` [Compound 15.1, 4-Amino-5-fluoro-7-bromo-1-isobutyl-2-(1-methoxymethyl-3-phosphono)benzimidazole], the melting point was 200 to 202 °C (dec.). This molecule also registered an IC50 against mouse liver FBPase of 1.5 µM. In the data set on rat hepatocytes (Hepatocyte), this molecule had an IC50 of 16 µM.

With `CC(C)Cn1c(-c2ccc(P(=O)(OCOC(=O)C(C)(C)C)OCOC(=O)C(C)(C)C)o2)nc2c(N)c(Cl)cc(Cl)c21` [Compound 18.2, 4-Amino-5,7-dichloro-1isobutyl-2-(5-furanyl-2-bispivaloyloxymethylphosphonate)benzimidazole], in the data set with rat hepatocytes, the IC50 turned out to be 17 µM.
